Experimental data taken from PMC8011376 (Journal of the American Chemical Society, 2020).

Experiments:
Test in all cases: MIC determination, broth microdilution
E. cloacae ATCC 13047 = assay type: cell-based, Enterobacter cloacae
P. aeruginosa = assay type: cell-based, Pseudomonas aeruginosa; details: listed as measured MICs for polymyxin-supplemented assays
A. baumannii = assay type: cell-based, Acinetobacter baumannii; details: listed as measured MICs for polymyxin-supplemented assays
E. coli DH5α = assay type: cell-based, Escherichia coli; details: listed as measured MICs for polymyxin-supplemented assays
K. pneumoniae = assay type: cell-based, Klebsiella pneumoniae; details: listed as measured MICs for polymyxin-supplemented assays

polymyxin
MIC of polymyxin (E. cloacae ATCC 13047; E. cloacae ATCC 13047, strain not susceptible (note)): > 64 µg/mL
MIC of polymyxin (E. cloacae ATCC 13047; E. cloacae, value in the list of measured MICs): 2 µg/mL
MIC of polymyxin (P. aeruginosa): 0.15 µg/mL
MIC of polymyxin (A. baumannii): 0.3 µg/mL
MIC of polymyxin (E. coli DH5α): 0.0625 µg/mL
MIC of polymyxin (K. pneumoniae): 0.15 µg/mL
